Series [1] concerns the target T1, Chk1 (Homo sapiens, UniProt O14757).
T1 construct: purchased BPS 40039
T1 sequence (O14757 1-476): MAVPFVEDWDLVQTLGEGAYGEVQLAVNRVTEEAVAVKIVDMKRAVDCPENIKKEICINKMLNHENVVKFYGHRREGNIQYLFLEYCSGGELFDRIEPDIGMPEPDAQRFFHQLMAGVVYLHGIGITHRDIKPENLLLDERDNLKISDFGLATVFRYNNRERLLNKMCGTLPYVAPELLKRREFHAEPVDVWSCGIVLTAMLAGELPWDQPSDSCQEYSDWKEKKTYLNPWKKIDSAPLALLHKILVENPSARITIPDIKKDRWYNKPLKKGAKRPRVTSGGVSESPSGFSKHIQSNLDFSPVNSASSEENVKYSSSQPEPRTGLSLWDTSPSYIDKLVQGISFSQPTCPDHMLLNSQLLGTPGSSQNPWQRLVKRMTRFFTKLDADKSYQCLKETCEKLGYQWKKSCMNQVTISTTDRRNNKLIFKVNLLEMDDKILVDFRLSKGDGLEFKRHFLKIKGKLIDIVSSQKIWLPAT
The series can be described thus: biochemical. The settings on record: ADP-Glo; read-out: Chk1 in vitro enzyme activity (grade).

For series [2], the target named is T2, Chk2 (Homo sapiens, UniProt O96017).
T2 construct: purchased Carna 02-162
Briefly: biochemical. The settings on record: ADP-Glo; read-out: Chk2 in vitro enzyme activity (grade). (In general: In ADP-Glo the light output rises with the ADP produced.)

Series [3] concerns HT-29. Briefly: Cancer cell growth inhibition assay (CellTiter-Glo), HT-29. The format is cell-based, Human. To be noted: Homo sapiens, HT-29; 72 hours, cellular ATP content; read-out: HT-29 anti cell proliferation activity (grade). As for the experimental part: (§1) Human cancer cell lines were purchased from American Type Culture Collection (Manassas, Va.). The trypsinized cells were diluted to required volume at densities of 44,000 cells/ml. 90 ul cell slurry was dispensed per well in 96-well flat-bottomed plates with the recommended culture medium. The cells were incubated for 24 hours at 37° C. in 5% CO2 under humidified condition. The cells were then incubated with compounds at various concentrations for 72 hours in culture medium supplemented with 0.5% (v/v) FBS. Growth inhibition was assessed by assay of cellular ATP content using CellTiter-Glo reagent to each well. Luminesce was read on Envision. The inhibition rate (%)=(Max signal compound signal)/(Max signal Min signal)×100.
For orientation: ATP-based viability assays read luminescence as a measure of living cells.

The test system of series [4] is MDA-MB-231. Briefly: Cancer cell growth inhibition assay (CellTiter-Glo), MDA-MB-231. The format is cell-based, Human. To be noted: Homo sapiens, MDA-MB-231; 72 hours, cellular ATP content; read-out: MDA-MB-231 anti cell proliferation activity (grade). How it is done:
as §1

Series [5] is described as follows: Human liver S9 metabolic stability. The settings on record: for Percentage Remaining %: 1 μM, 37° C.; for metabolic stability compared with LY2606368: human liver S9; for half-life at 1 μM: human liver S9, 1 μM. The format is in vitro ADME. As for the experimental part:
Compounds (1 μM) were incubated with human liver S9 (from BD Gentest) at final liver microsomal protein concentration of 0.5 mg/mL for 0, 5, 15, 30, 45 min at 37° C. The remaining compounds in the reaction were measured by LC-MS/MS. The half-life (T½) 0.693/K (K is the rate constant from a plot of ln [concentration] vs. incubation time).

Series [6] is described as follows: Pharmacokinetics study in rats, intravenous. The format is in vivo, SD rats. To be noted: rat, IV; for AUC(0-inf) / AUC(0-t) / clearance / MRT / half-life / Vd: male, SD, plasma, 10 mg/kg; for AUC(0-inf): read-out: AUC0-inf; for AUC(0-t): read-out: AUC0-t; for clearance: read-out: CL (converted); for MRT: read-out: MRT; for half-life: read-out: t½ (converted); for Vd: iv; for half-life and exposure compared with LY2606368: 10 mg/kg (LY2606368 5 mg/kg). How it is done:
Compounds were formulated in 30% SEB-β-CD (Zhiyuan Bio-technology) with 1 molar equivalents of HCl (pH adjusted to 3-5). Male SD rats (280-350 g) were purchased from Medical Laboratory Animal Center of Guangdong. Three rats were used for each PK study. […] At various time points after compound administration, approximately 0.2˜0.3 mL of blood was collected by cutting the end of tail into tubes containing K2-EDTA. The plasma was separated via centrifugation and stored at −80° C. A PE Sciex API-3000 LC-MS/MS system (Applied Biosystems, Inc.) was used to analyze compound concentrations in plasma.
PK studies of ChK1 inhibitors were conducted in rats after intravenous administration at 10 mg/kg. […]. […]

Molecules are shown by their SMILES. Read-outs that look alike come from different tables or passages of the source.

T2 sequence (O96017 whole entry): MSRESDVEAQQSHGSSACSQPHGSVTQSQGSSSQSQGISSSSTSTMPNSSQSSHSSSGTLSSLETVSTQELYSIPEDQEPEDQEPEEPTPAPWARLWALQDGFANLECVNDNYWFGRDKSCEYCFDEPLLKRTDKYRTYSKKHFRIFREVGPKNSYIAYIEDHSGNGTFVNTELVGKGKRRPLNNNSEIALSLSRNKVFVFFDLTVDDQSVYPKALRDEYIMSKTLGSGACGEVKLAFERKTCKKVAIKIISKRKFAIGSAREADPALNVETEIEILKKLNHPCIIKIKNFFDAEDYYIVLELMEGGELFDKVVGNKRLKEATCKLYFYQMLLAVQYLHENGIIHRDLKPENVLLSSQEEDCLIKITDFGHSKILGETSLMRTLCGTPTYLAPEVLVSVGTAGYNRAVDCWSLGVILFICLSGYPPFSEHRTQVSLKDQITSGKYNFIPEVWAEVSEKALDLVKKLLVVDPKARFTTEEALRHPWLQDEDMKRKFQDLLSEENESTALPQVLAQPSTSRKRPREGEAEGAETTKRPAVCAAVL

Usually melting point stands for the temperature of the solid-liquid transition. In turn, `COc1cc(OC)c(-c2cc(Nc3cnc(C#N)cn3)n[nH]2)c(OCCCN)c1` [Compound 7, 5-(5-(2-(3-Aminopropoxy)-4,6-dimethoxyphenyl)-1H-pyrazol-3-ylamino)pyrazine-2-carbonitrile] displayed a melting point of 145 to 151 °C. Besides, the IC50 in series [1] fell in the range of 1 to 10 nM. Further, the IC50 in series [2] lay in the range of 10 to 50 nM. Moreover, the IC50 in series [3] is 10 to 50 nM. Moreover, in series [4], the IC50 was 10 to 50 nM.
As for `COc1cc(OC)c(-c2cc(Nc3cnc(C#N)cn3)n[nH]2)c(OCC2(CN)CC2)c1` [Compound 17, 5-(5-(2-((1-(Aminomethyl)cyclopropyl)methoxy)-4,6-dimethoxyphenyl)-1H-pyrazol-3-ylamino)pyrazine-2-carbonitrile], the melting point is 160 to 164 °C. In series [1], the IC50 is 1 to 10 nM. Further, in series [2], the IC50 lay within 10 to 50 nM. Also, the IC50 in series [3] was not above 10 nM. In addition, the IC50 in series [4] lay in the range of 10 to 50 nM.
In turn, `COc1cc(C)cc(OCCCN)c1-c1cc(Nc2cnc(C#N)cn2)n[nH]1` [Compound 6, 5-(5-(2-(3-aminopropoxy)-6-methoxy-4-methylphenyl)-1H-pyrazol-3-ylamino)pyrazine-2-carbonitrile] displayed a melting point of 188 to 191 °C. Also, in series [1], the IC50 was not above 1 nM. Moreover, in series [2], the IC50 is 50 to 100 nM. Also, the IC50 in series [3] is 10 to 50 nM. The IC50 in series [4] was 10 to 50 nM.
With `COc1cc(F)cc(OCC2(CN)CC2)c1-c1cc(Nc2cnc(C#N)cn2)n[nH]1` [Compound 13, 5-(5-(2-((1-(Aminomethyl)cyclopropyl)methoxy)-4-fluoro-6-methoxyphenyl)-1H-pyrazol-3-ylamino)pyrazine-2-carbonitrile], the melting point lay within 202 to 206 °C. The IC50 in series [1] is not above 1 nM. Further, the IC50 in series [2] is 10 to 50 nM. Besides, the IC50 in series [3] is not above 10 nM. Moreover, the IC50 in series [4] lay in the range of 10 to 50 nM. Moreover, in series [5] (0 min), the “Percentage Remaining %” value came to 100.00%. Further, the “Percentage Remaining %” value in series [5] (5 min) is reported as 98.69%. Further, the “Percentage Remaining %” value in series [5] (15 min) is on record as 99.08%. In series [5] (30 min), the “Percentage Remaining %” value is 96.23%. In addition, the “Percentage Remaining %” value in series [5] (45 min) is 100.18%. In series [5], the “metabolic stability compared with LY2606368” value was “more metabolic stable than LY2606368” and the half-life at 1 μM stood at 5 h.
In general, MRT refers to the average time that molecules of a dose stay in the body. The compound `COc1cc(Cl)cc(OCCCN)c1-c1cc(Nc2cnc(C#N)cn2)n[nH]1` [Compound 4, 5-(5-(2-(3-Aminopropoxy)-4-chloro-6-methoxyphenyl)-1H-pyrazol-3-ylamino)pyrazine-2-carbonitrile] returned a melting point of 198 to 203 °C. Further, the IC50 in series [1] is not above 1 nM. The IC50 in series [2] was in the range of 50 to 100 nM. In series [3], the IC50 fell in the range of 10 to 50 nM. Besides, in series [4], the IC50 lay in the range of 10 to 50 nM. Also, in series [6], the AUC(0-inf) came to 2400 ng·h/mL, the AUC(0-t) worked out at 2390 ng·h/mL, the clearance is 78.3 mL/min/kg and the MRT amounted to 3.1 h. Moreover, in series [6], the half-life was 3.3 h; the “half-life and exposure compared with LY2606368” value is “longer half-life and higher exposure than LY2606368”. Moreover, the Vd in series [6] (read-out: Vd) worked out at 22.1 L/kg. Also, the Vd in series [6] (read-out: Vss) was 14.3 L/kg. In series [5] (0 min), the “Percentage Remaining %” value is reported as 100.00%. Moreover, the “Percentage Remaining %” value in series [5] (5 min) came to 97.57%. Moreover, the “Percentage Remaining %” value in series [5] (15 min) is 94.83%. For the same compound, in series [5] (30 min), the “Percentage Remaining %” value was determined as 88.45%. For the same compound, the “Percentage Remaining %” value in series [5] (45 min) is given as 82.67%. For the same compound, in series [5], the “metabolic stability compared with LY2606368” value is “more metabolic stable than LY2606368” and the half-life at 1 μM turned out to be 103 h.
Regarding `COc1cc(Br)cc(OCCCN)c1-c1cc(Nc2cnc(C#N)cn2)n[nH]1` [Compound 5, 5-(5-(2-(3-Aminopropoxy)-4-bromo-6-methoxyphenyl)-1H-pyrazol-3-ylamino)pyrazine-2-carbonitrile], the melting point lay in the range of 165 to 175 °C. Further, in series [1], the IC50 is not above 1 nM. Also, the IC50 in series [2] is 50 to 100 nM. Besides, in series [3], the IC50 was in the range of 10 to 50 nM. Further, in series [4], the IC50 lay in the range of 50 to 100 nM. Besides, in series [6], the AUC(0-inf) amounted to 2990 ng·h/mL, the AUC(0-t) turned out to be 2960 ng·h/mL, the clearance is 60 mL/min/kg and the MRT amounted to 2.8 h. In addition, in series [6], the half-life is 5.3 h; the “half-life and exposure compared with LY2606368” value is “longer half-life and higher exposure than LY2606368”. The Vd in series [6] (read-out: Vd) stood at 29.5 L/kg. In addition, the Vd in series [6] (read-out: Vss) came out at 10.2 L/kg.
In turn, `COc1cc(Cl)cc(OCC2(CN)CC2)c1-c1cc(Nc2cnc(C#N)cn2)n[nH]1` [Compound 14, 5-(5-(2-((1-(Aminomethyl)cyclopropyl)methoxy)-4-chloro-6-methoxyphenyl)-1H-pyrazol-3-ylamino)pyrazine-2-carbonitrile] showed a melting point of 232 to 236 °C. Further, the IC50 in series [1] is not above 1 nM. Also, the IC50 in series [2] fell in the range of 10 to 50 nM. The IC50 in series [3] lay in the range of 10 to 50 nM. Also, the IC50 in series [4] was in the range of 10 to 50 nM. Moreover, in series [6], the AUC(0-inf) was found to be 3120 ng·h/mL, the AUC(0-t) turned out to be 3100 ng·h/mL, the clearance was 56.7 mL/min/kg and the MRT amounted to 4.1 h. Moreover, in series [6], the half-life is 4 h; the “half-life and exposure compared with LY2606368” value is “longer half-life and higher exposure than LY2606368”. Also, the Vd in series [6] (read-out: Vd) worked out at 19.2 L/kg. In series [6] (read-out: Vss), the Vd was 13.9 L/kg.
`COc1cc(C)cc(OCC2(CN)CC2)c1-c1cc(Nc2cnc(C#N)cn2)n[nH]1` [Compound 16, 5-(5-(2-((1-(Aminomethyl)cyclopropyl)methoxy)-6-methoxy-4-methylphenyl)-1H-pyrazol-3-ylamino)pyrazine-2-carbonitrile] yielded a melting point of 165 to 170 °C. The IC50 in series [1] was not above 1 nM. Moreover, in series [2], the IC50 lay in the range of 10 to 50 nM. Further, the IC50 in series [3] is not above 10 nM. The IC50 in series [4] is 10 to 50 nM.
As for `COc1cc(Br)cc(OCC2(CN)CC2)c1-c1cc(Nc2cnc(C#N)cn2)n[nH]1` [Compound 15, 5-(5-(2-((1-(Aminomethyl)cyclopropyl)methoxy)-4-bromo-6-methoxyphenyl)-1H-pyrazol-3-ylamino)pyrazine-2-carbonitrile], the IC50 in series [1] is not above 1 nM; in series [2] it was 10 to 50 nM; in series [3], 10 to 50 nM; in series [4], 10 to 50 nM. In addition, in series [6], the AUC(0-inf) was found to be 4980 ng·h/mL. The AUC(0-t) in series [6] was 4890 ng·h/mL. Besides, the clearance in series [6] is 63.3 mL/min/kg. Moreover, the MRT in series [6] was 3.8 h. Moreover, the half-life in series [6] is 7.4 h. For the same compound, the Vd in series [6] (read-out: Vd) is 46.9 L/kg; in series [6] (read-out: Vss) it was 19.2 L/kg. Also, the “half-life and exposure compared with LY2606368” value in series [6] was “longer half-life and higher exposure than LY2606368”. For the same compound, the “Percentage Remaining %” value in series [5] (0 min) was determined as 100.00%; in series [5] (5 min) it was 94.64%; in series [5] (15 min) it was 93.89%; in series [5] (30 min), 93.30%; in series [5] (45 min) it was 87.68%. In addition, in series [5], the “metabolic stability compared with LY2606368” value was “more metabolic stable than LY2606368”. The half-life at 1 μM in series [5] is 7.99 h.

The record behind these values is patent publication US11116767B2, “3,5-disubstituted pyrazoles useful as checkpoint kinase 1 (Chk1) inhibitors, and their preparations and applications” (PHARMAENGINE, INC., priority 2016, dated 2021).
